Reference: patent US20250154180A1, “CRK-LIKE (CRKL) ADAPTOR PROTEIN INHIBITORS AND METHODS OF MAKING AND USING THE SAME” (Rutgers, The State University of New Jersey, priority 2022, published 2025)

Legend:
CrkL = CrkL (Homo sapiens, UniProt P46109); type: biochemical
Source text: Single-molecule Fluorescence Resonance Energy Transfer (smFRET)—Single-molecule Fluorescence Resonance Energy Transfer (smFRET) was applied to monitor conformations of single molecules. CrkL has two cysteines (a relatively rare amino acid), one in its SH2 and another in SH3C domains. CrkL was mixed with a mixture of equal amounts of Alexa555-maleimide and Alexa647-maleimide (Invitrogen, USA) (10× over protein concentration) to randomly label the two cysteines. The labeled protein was purified from an unreacted dye by gel filtration. Molecules with exactly one donor and acceptor are identified in single-molecule data analysis and used for further analysis. […] The FRET change between non-phosphorylated CrkL and phosphorylated CrkL was measured. The dye-labeled protein was used in in vitro kinase assays with different drugs treatments as described above. smFRET measurements were performed with a prism-type total internal refection microscope (TIRF) where FRET efficiency is calculated from measured donor and acceptor intensities (Id and Ia, respectively) by FRET=Ia/(Id+Ia), as described previously. To surface immobilize 6×His tagged CrkL, the protein was added to the biotinylated 6×His antibody (Thermo Scientific Cat #: MA1-80087) bound to streptavidin, which was adsorbed to a quartz slide. A lipid bilayer was used to passivate the quartz surface. Phosphorylation was performed on the immobilized Crk in situ.
In intramolecular smFRET, non-radiative energy transfer occurs when two fluorophores attached to different parts of one molecule move close together. […] A cysteine-maleimide-based chemistry was used to label both CrkL and mutant (non-phosphorylatable) CrkL-Y207F. CrkL has a cysteine (a relatively rare amino acid) in its SH2 (labeled with AlexaFluor555) and SH3C (labeled with AlexaFluor647). […] Western Blot (WB) and immunoprecipitation (IP) was used to verify that labeled proteins retain the same gross functional properties as wild-type CrkL (e.g., are phosphorylatable and capable of binding SH2 and SH3 ligands). Briefly, site-specific labeled CrkL was mixed with Ab1 in the presence of Mg^2+ and ATP. A single AlphaScreen-identified candidate inhibitor was then added per assay.

[1] = test system: TM00089 TNBC patient-derived tumor; assay: TNBC patient-derived xenograft (PDX) TM00089 model; type: in vivo, mice
Source text: For the patient-derived xenograft (PDX) model, a cohort of mice engrafted with the TNBC tumor model #TM00089-Breast-Tumor Markers: TNBC ER−(estrogen receptor-negative)/PR—(progesterone receptor-negative)/HER2—(human epidermal growth factor receptor two negative), BRCA1 V757fs (4 to 6-weeks-old females) were obtained from Jackson Laboratories (Bar Harbor, ME). PDX models were generated by surgically engrafting tumor cells into the mammary fat pad of NSG™ (nonobese diabetic, severe combined immunodeficiency, interleukin-2 receptor gamma chain-null) mice.
To determine inhibition efficacy in vivo of Pomiferin in the TNBC clinical patient tumor, the therapeutic efficacy of Pomiferin in a patient-derived tumor xenograft mouse from the Jackson Laboratory PDX Live™ library was evaluated. The TM00089 breast invasive ductal carcinoma was selected, characterized as TNBC ER^−/PR^−/HER2^−, BRCA1^V757fs since TNBC tumors with BRCA1 mutations are generally the most aggressive and have the worst prognosis within the first five years after diagnosis compared to other types of breast cancers.

[2] = test system: pCrkL (T207) in Sk-Hep1 cells; assay: Flow cytometry of H2O2-induced pCrkL, Sk-Hep1; type: cell-based; details: 50 uM H2O2 1 hour, then 10 uM compound 24 hours
Experimental: In this example, Sk-Hep1 cells were pretreated with 50 uM H2O2 for 1 hour to induce activation of pCrkL and were then incubated with 10 uM NC5 or Compound III for 24 hours. pCrkL (T207) expression was determined by flow cytometry.

[3] = test system: TNBC cells (MDA-231 and MDA-468); assay: Annexin V/PI apoptosis, TNBC (MDA-231 and MDA-468); type: cell-based; details: 1 uM, 24 hours
Experimental: Annexin V/PI Staining—Experimental cells were collected, washed with 1×PBS, resuspended in the binding buffer, and stained with an Annexin V-FITC assay Kit (Millipore Sigma). The cells were incubated with 50 μg/ml Annexin V in 1× binding buffer at room temperature for 15 minutes, then 10 μg/ml propidium iodide for another 15 minutes and analyzed by flow cytometry (EPICS XL). Annexin V-positive/PI-negative cells were considered early apoptotic, cells with both Annexin V and PI-positive to be late apoptotic, and Annexin V negative but PI-positive to be “necrotic.” The percent of apoptosis was calculated as the sum of the percentages of both early and late apoptotic cells.
To figure out the features of cytotoxic effects of Pomiferin on breast cancer cells. Pomiferin-treated breast cancer cells were stained with an Annexin V/PI kit and measured them with Flow Cytometry.

[4] = test system: IL-2 production from human PBMCs; assay: IL-2 ELISA, PBMCs; type: cell-based
Experimental: IL-2 ELISA—IL-2 in vitro enzyme-linked immunosorbent assay (ELISA) was used to measure human IL-2 productions. This assay was conducted per the user manual from the kit. In brief, human PBMCs were cultured in R10 medium with 0.5 μg/ml PHA. Then, 100 μl of the standard and sample was added to each well and incubated at 4° C. overnight. A prepared biotin antibody (100 μl) was added to each well and incubated for 1 hour at room temperature. Then, 100 μl prepared streptavidin solution was added and incubated for 45 minutes at room temperature. TMB one-step substrate reagent (100 μl) was then added to each well and incubated for 30 minutes at room temperature. Stop solution (50 μl) was then added to each well, and the results were quantified at 450 nm by Infinite M1000 Pro Plate Reader (Tecan, Switzerland) immediately.
Previous studies have shown that phosphorylated CrkL inhibits immune cell functions. It was then evaluated whether a pCrkL inhibitor could restore immune cell functions. To test this, the production of IL-2 from human PBMCs treated with different concentrations of Pomiferin was quantitated. Phytohemagglutinin (PHA) was used to stimulate the secretion of IL-2 as a positive control group. […] Similar results were obtained from the third donor (FIG. 5B, lower panel).

Chain of CrkL (P46109 whole entry, the tested form may be a part): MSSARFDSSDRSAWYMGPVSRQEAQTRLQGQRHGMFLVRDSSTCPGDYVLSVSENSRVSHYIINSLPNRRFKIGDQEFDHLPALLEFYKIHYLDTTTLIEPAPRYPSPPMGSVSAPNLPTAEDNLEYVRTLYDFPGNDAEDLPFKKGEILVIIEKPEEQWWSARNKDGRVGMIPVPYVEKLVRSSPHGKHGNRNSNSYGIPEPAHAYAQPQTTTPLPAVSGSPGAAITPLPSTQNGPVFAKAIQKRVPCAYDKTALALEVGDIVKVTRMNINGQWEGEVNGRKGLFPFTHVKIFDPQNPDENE

In the case of CC(C)=CCc1c2c(c3occ(-c4ccc(O)c(O)c4)c(=O)c3c1O)C=CC(C)(C)O2 [Pomiferin, 3′,4′,5-Trihydroxy-6″,6″-dimethyl-6-(3-methylbut-2-en-1-yl)-6″H-pyrano[2″,3″:7,8]isoflavone], the “inhibition of the higher FRET caused by Ab1 (pCrkL)” value (CrkL; CrkL + Ab1, Mg2+ and ATP) is reported as 55%, the FRET signal (CrkL; CrkL about 0.4, CrkL+Ab1 about 0.6) is reported as 0.5 and the tumor growth ([1]; 5.0 μg/g Pomiferin vs vehicle) is reported as “significantly more inhibited”. For the same compound, the “median survival, fold longer than vehicle control” value ([1]; Pomiferin 5 μg/g) was 1.4 fold, the median survival ([1]; Pomiferin 5 μg/g, vehicle 39 days) was 53 days and the body weights ([1]; vs vehicle, during drug treatment period) was “not significantly different”. For the same compound, the “H2O2 induced pCrkL protein levels” value [2] was “inhibited H2O2 induced pCrkL protein levels”, the apoptosis [3] was “significantly induced apoptosis” and the IL2 secretion ([4]; PBMCs from three healthy donors, treated overnight) was “did not inhibit IL2 secretion”. For the same compound, the IL-2 production ([4]; first donor, compared to DMSO) was “decreased IL-2 production”.
